Test results taken from patent US4880807A, “Nicotinoylpiperazines useful for treatment of convulsions” (Institut De Recherches Chimiques et Biologiques Appliquees …, priority 1987, dated 1989).

How the values were obtained:
[1] = tested on: convulsions induced by supra maximal electroshock (MCE); assay: animal or person
Description: (§1) The anticonvulsant properties were investigated on male mice, thirty minutes after the oral administration of the substances to be studied, by the induction of convulsive seizures.
These seizures are caused either by the intraperitoneal injection of pentetrazole (125 mg/kg) or by electrical stimulation of the cornea (supra maximal electroshock, abbreviated to MCE).

[2] = in vivo; format: in vivo; settings: mouse, in vivo, po; per os, male mice, Rota-rod 30 min after administration; dose causing 50% of animals to fall; read-out: TD50 (50% neurotoxic dose)
From the text: (§2) The animals (divided into groups each containing ten male mice per dose and per product) are installed on the rod and their fall is observed over the next two minutes.

[3] = tested on: male mice; assay: in vivo; format: in vivo; settings: TD50 per os/ED50 per os
From the text: as §2

[4] = oral toxicity in mice (LD50, mortality over 14 days); settings: mouse, in vivo, po
Description: (§3) The toxicity of the products to be studied was investigated by the oral administration, using an esophageal tube, of each of the said products to male mice with a body weight of 18 to 22 g, divided into groups each containing 10 to 20 animals. The mortality was recorded over a 14-day period.

[5] = tested on: male mice; assay: as above; settings: per os, male mice; repeated in Table IV; 20160 min
Description: as §3

[6] = tested on: convulsions induced by pentetrazole; assay: animal or person
From the text: as §1

Which “Therapeutic index MCE (LD50/ED50)” value ([1]; LD50 per os/ED50 per os, MCE convulsions) does the source give for `CCCC(CCC)C(=O)[O-].[Na+]` [VALP, sodium valproate, reference compound] here?
Its value is 4.0.

And the ED50 ([1]; Mus musculus, po, 0.5 h, read-out: ED50 in respect of convulsions induced by MCE)?
Its ED50 is 242 mg/kg.

And the TD50 at 0.5 h [2]?
Its TD50 at 0.5 h is 670 mg/kg.

And the “Protection index MCE (TD50/ED50)” value ([3]; MCE convulsions)?
The value was 2.8.

And the “Protection index PTZ (TD50/ED50)” value ([3]; PTZ convulsions)?
The value was 2.7.

What about the LD50 at 336 h [4] of the same compound?
The LD50 at 336 h was 977 mg/kg.

And the LD50 [5]?
Its LD50 is 977 mg/kg.

And the “Therapeutic index PTZ (LD50/ED50)” value ([6]; LD50 per os/ED50 per os, PTZ convulsions)?
Its value is 4.0.

What about the ED50 ([6]; Mus musculus, po, 0.5 h, read-out: ED50 in respect of convulsions induced by PTZ) of the same compound?
The ED50 was 244 mg/kg.
